Data published in patent publication US11760722B2 (priority 2022, dated 2023).
Read-outs that look alike come from different tables or passages of the source.

Experiments:
[1] = system: human coronavirus (HCoV) 229E; experiment: microbe, parasite or virus in culture; assay type: cell-based, human coronavirus 229E; settings: MRCS cells, HCoV 229E, 3 days, CellTiter Glo, read-out: 229E CPE EC50
Protocol: Test compounds were provided by the sponsor. Reference compound remdesivir was provided by WuXi AppTec. Compounds were assayed at 8 concentrations (to be defined by sponsor), in duplicate wells.
MRCS cells were obtained from the ATCC, and maintained in the Minimum Essential Medium supplemented with 10% FBS, 1% L-glutamine, 1% NEAA and 1% penicillin-streptomycin. Minimum Essential Medium supplemented with 5% FBS, 1% L-glutamine, 1% NEAA and 1% penicillin-streptomycin was used as the assay medium.
Cells were seeded in 96 well plates, in 100 μl per well of assay medium, and cultured at 37° C. and 5% CO2 overnight. Next day, test compound was diluted with assay medium and then added into the cells, 50 μl per well. Then 50 μl per well of assay medium diluted virus was added. The final volume of the cell culture was 200 μl per well. […] The CPE were measured by CellTiter Glo following the manufacturer's manual. The antiviral activity of compounds was calculated based on the protection of the virus-induced CPE at each concentration normalized by the virus control.
EC50 and CC50 values were calculated using the GraphPad Prism software using the nonlinear regression model of log(inhibitor) vs. response—Variable slope (four parameters).

SARS-CoV-2 replicon = experiment: microbe, parasite or virus in culture; assay type: cell-based; settings: read-out: Replicon EC50
[2] = unidentified human coronavirus, 72 h
[3] = Severe acute respiratory syndrome coronavirus 2, Huh-7, 24 h

Compound | EC50 [1, 2] [nM] | EC50 (SARS-CoV-2 replicon; [3]) [nM] | EC50 (SARS-CoV-2 replicon) [nM] | EC50 [1] [nM]
CC(C)(C)[C@H](NC(=O)C(F)(F)F)C(=O)N1C[C@H]2[C@@H]([C@H]1C(=O)N[C@H](/C=C/C#N)C[C@@H]1CCNC1=O)C2(C)C [Compound 103] | 16900 | 650 | – | –
CN(C)C(C)(C)C(=O)N[C@H](C(=O)N1C[C@H]2[C@@H]([C@H]1C(=O)N[C@H](C#N)C[C@@H]1CCNC1=O)C2(C)C)C(C)(C)C [Compound 104] | 12700 | > 10000 | – | –
CC1(C)[C@@H]2[C@@H](C(=O)N[C@H](C#N)C[C@@H]3CCNC3=O)N(C(=O)[C@@H](NC(=O)C(F)(F)F)c3ccc(F)cc3)C[C@@H]21 [Compound 105] | 6180 | 650 | – | –
CC(C)(C)[C@H](NC(=O)c1ccc2ccccc2c1)C(=O)N1C[C@H]2[C@@H]([C@H]1C(=O)N[C@H](C#N)C[C@@H]1CCNC1=O)C2(C)C [Compound 106] | 4020 | 860 | – | –
CC(C)(C)[C@H](NC(=O)c1ccccn1)C(=O)N1C[C@H]2[C@@H]([C@H]1C(=O)N[C@H](C#N)C[C@@H]1CCNC1=O)C2(C)C [Compound 107] | 23300 | 3770 | – | –
CC(C)(C)[C@H](NC(=O)c1ccc(F)c(F)c1)C(=O)N1C[C@H]2[C@@H]([C@H]1C(=O)N[C@H](C#N)C[C@@H]1CCNC1=O)C2(C)C [Compound 108] | 3900 | 330 | – | –
CC(C)(C)[C@H](NC(=S)N1CCCCC1)C(=O)N1C[C@H]2[C@@H]([C@H]1C(=O)N[C@H](C#N)C[C@@H]1CCNC1=O)C2(C)C [Compound 109] | 985 | 875 | – | –
CC(C)[C@H]1CC[C@H](C)C[C@@H]1OCC(=O)N[C@H](C(=O)N1C[C@H]2[C@@H]([C@H]1C(=O)N[C@H](C#N)C[C@@H]1CCNC1=O)C2(C)C)C(C)(C)C [Compound 110] | 23500 | 1360 | – | –
CC(C)(C)[C@H](NS(=O)(=O)c1cc2ccccc2s1)C(=O)N1C[C@H]2[C@@H]([C@H]1C(=O)N[C@H](C#N)C[C@@H]1CCNC1=O)C2(C)C [Compound 111] | 130 | 3.4 | 4.6 | –
CC(C)(C)[C@H](NC(=O)C1(CS(=O)(=O)C(C)(C)C)CCCCC1)C(=O)N1C[C@H]2[C@@H]([C@H]1C(=O)N[C@H](C#N)C[C@@H]1CCNC1=O)C2(C)C [Compound 115] | > 30000 | 3000 | – | –
CN(C)[C@@H]1C[C@@H](C(=O)N[C@H](C#N)C[C@@H]2CCNC2=O)N(C(=O)[C@@H](NC(=O)C(F)(F)F)C(C)(C)C)C1 [Compound 116] | > 30000 | 740 | – | –
CC(C)(C)[C@H](NC(=O)c1cccc2ccccc12)C(=O)N1C[C@H]2[C@@H]([C@H]1C(=O)N[C@H](C#N)C[C@@H]1CCNC1=O)C2(C)C [Compound 119] | 546 | 340 | – | –
CC(C)(C)[C@H](NC(=O)c1ccc2c(c1)CCC2)C(=O)N1C[C@H]2[C@@H]([C@H]1C(=O)N[C@H](C#N)C[C@@H]1CCNC1=O)C2(C)C [Compound 120] | 4720 | 2240 | – | –
CC(C)(C)[C@H](NS(=O)(=O)c1ccns1)C(=O)N1C[C@H]2[C@@H]([C@H]1C(=O)N[C@H](C#N)C[C@@H]1CCNC1=O)C2(C)C [Compound 122] | 147 | 47 | 62 | –
CC(C)(C)[C@H](NC(=S)NC1CC(F)(F)C1)C(=O)N1C[C@H]2[C@@H]([C@H]1C(=O)N[C@H](C#N)C[C@@H]1CCNC1=O)C2(C)C [Compound 123] | 700 | 790 | – | –
CC(C)(C)[C@H](NC(=S)NC1CCC1)C(=O)N1C[C@H]2[C@@H]([C@H]1C(=O)N[C@H](C#N)C[C@@H]1CCNC1=O)C2(C)C [Compound 124] | 801 | 500 | – | –
CC(C)(C)[C@H](NC(=S)NC1CCC1)C(=O)N1C[C@H]2[C@@H]([C@H]1C(=O)N[C@H](C#N)C[C@@H]1CCN(C(=O)C(F)(F)F)C1=O)C2(C)C [Compound 125] | 708 | 68 | – | –
CC1(NC(=S)N[C@H](C(=O)N2C[C@H]3[C@@H]([C@H]2C(=O)N[C@H](C#N)C[C@@H]2CCNC2=O)C3(C)C)C(C)(C)C)CC1 [Compound 126] | 193 | 24 | – | –
CNC(=O)N[C@H](C(=O)N1C[C@H](N(C)C)C[C@H]1C(=O)N[C@H](C#N)C[C@@H]1CCNC1=O)C(C)(C)C [Compound 128] | > 30000 | > 10000 | – | –
COC(=O)N[C@H](C(=O)N1C[C@H](N(C)C)C[C@H]1C(=O)N[C@H](C#N)C[C@@H]1CCNC1=O)C(C)(C)C [Compound 129] | > 30000 | 6870 | – | –

Compound | EC50 [1, 2] [nM] | EC50 (SARS-CoV-2 replicon; [3]) [nM] | EC50 (SARS-CoV-2 replicon) [nM] | EC50 [1] [nM]
COc1ccccc1S(=O)(=O)N[C@H](C(=O)N1C[C@H]2[C@@H]([C@H]1C(=O)N[C@H](C#N)C[C@@H]1CCNC1=O)C2(C)C)C(C)(C)C [Compound 130] | 1090 | 93 | 130 | 1230
C=CCS(=O)(=O)N[C@H](C(=O)N1C[C@H]2[C@@H]([C@H]1C(=O)N[C@H](C#N)C[C@@H]1CCNC1=O)C2(C)C)C(C)(C)C [Compound 131] | 657 | 120 | 180 | –
CC(C)(C)[C@H](NS(=O)(=O)CC#N)C(=O)N1C[C@H]2[C@@H]([C@H]1C(=O)N[C@H](C#N)C[C@@H]1CCNC1=O)C2(C)C [Compound 132] | 589 | 64 | 75 | 591
CC(C)c1cc(C(C)C)c(S(=O)(=O)N[C@H](C(=O)N2C[C@H]3[C@@H]([C@H]2C(=O)N[C@H](C#N)C[C@@H]2CCNC2=O)C3(C)C)C(C)(C)C)c(C(C)C)c1 [Compound 134] | > 30000 | 7990 | > 10000 | –
CC(C)(C)[C@H](NS(=O)(=O)c1cc2c(s1)CCCC2)C(=O)N1C[C@H]2[C@@H]([C@H]1C(=O)N[C@H](C#N)C[C@@H]1CCNC1=O)C2(C)C [Compound 135] | 64 | 24 | 34 | 67
CC(C)(C)[C@H](NC(=O)CCC(F)(F)F)C(=O)N1C[C@H]2[C@@H]([C@H]1C(=O)N[C@H](C#N)C[C@@H]1CCNC1=O)C2(C)C [Compound 138] | 622 | 330 | 500 | –
C/C(=C\C(=O)N[C@H](C(=O)N1C[C@H]2[C@@H]([C@H]1C(=O)N[C@H](C#N)C[C@@H]1CCNC1=O)C2(C)C)C(C)(C)C)C(F)(F)F [Compound 140] | 619 | 350 | 410 | –
CC(C)(C)[C@H](NC(=O)C(F)(F)Cl)C(=O)N1C[C@H]2[C@@H]([C@H]1C(=O)N[C@H](C#N)C[C@@H]1CCNC1=O)C2(C)C [Compound 141] | 68 | 4.8 | 7 | –
Cc1c(C)c(C)c(S(=O)(=O)N[C@H](C(=O)N2C[C@H]3[C@@H]([C@H]2C(=O)N[C@H](C#N)C[C@@H]2CCNC2=O)C3(C)C)C(C)(C)C)c(C)c1C [Compound 142] | 283 | 160 | 170 | –
CC(C)(C)[C@H](NC(=O)C1(C(F)(F)F)CC1)C(=O)N1C[C@H]2[C@@H]([C@H]1C(=O)N[C@H](C#N)C[C@@H]1CCNC1=O)C2(C)C [Compound 151] | 207 | 85 | – | –
CC(C)(C)[C@H](NC(=O)C#Cc1ccc(C(F)(F)F)cc1)C(=O)N1C[C@H]2[C@@H]([C@H]1C(=O)N[C@H](C#N)C[C@@H]1CCNC1=O)C2(C)C [Compound 154] | 511 | 180 | – | –
COc1cc(/C=C/C(=O)N[C@H](C(=O)N2C[C@H]3[C@@H]([C@H]2C(=O)N[C@H](C#N)C[C@@H]2CCNC2=O)C3(C)C)C(C)(C)C)cc(OC)c1 [Compound 157] | 6940 | 320 | – | –
CC(C)(C)[C@H](NC(=O)C=C(C(F)(F)F)C(F)(F)F)C(=O)N1C[C@H]2[C@@H]([C@H]1C(=O)N[C@H](C#N)C[C@@H]1CCNC1=O)C2(C)C [Compound 158] | > 30000 | > 10000 | – | –
CC(C)(C)[C@H](NC(=O)C(F)C(F)(F)F)C(=O)N1C[C@H]2[C@@H]([C@H]1C(=O)N[C@H](C#N)C[C@@H]1CCNC1=O)C2(C)C (stereo partly shown) [Compound 159] | 134 | 30 | – | –
CC(C)=C(Cl)C(=O)N[C@H](C(=O)N1C[C@H]2[C@@H]([C@H]1C(=O)N[C@H](C#N)C[C@@H]1CCNC1=O)C2(C)C)C(C)(C)C [Compound 160] | 193 | 160 | – | –
CC(C)(C)[C@H](NC(=O)CC(F)(F)F)C(=O)N1C[C@H]2[C@@H]([C@H]1C(=O)N[C@H](C#N)C[C@@H]1CCNC1=O)C2(C)C [Compound 161] | 585 | 180 | – | –
CC(C)(C)[C@H](NC(=O)/C(F)=C(\F)C(F)(C(F)(F)F)C(F)(F)F)C(=O)N1C[C@H]2[C@@H]([C@H]1C(=O)N[C@H](C#N)C[C@@H]1CCNC1=O)C2(C)C [Compound 163] | 4630 | > 10000 | – | –
Cc1ccc(S(=O)(=O)N(C(=O)C(F)(F)F)[C@H](C(=O)N2C[C@H]3[C@@H]([C@H]2C(=O)N[C@H](C#N)C[C@@H]2CCNC2=O)C3(C)C)C(C)(C)C)cc1 [Compound 167] | 120 | 20 | – | –
Cc1cc(S(=O)(=O)N[C@H](C(=O)N2C[C@H]3[C@@H]([C@H]2C(=O)N[C@H](C#N)C[C@@H]2CCNC2=O)C3(C)C)C(C)(C)C)sc1Cl [Compound 168] | 116 | 41 | – | –
Cc1cc(S(=O)(=O)N[C@H](C(=O)N2C[C@H]3[C@@H]([C@H]2C(=O)N[C@H](C#N)C[C@@H]2CCNC2=O)C3(C)C)C(C)(C)C)sc1C [Compound 169] | 163 | 37 | – | –
